According to patent publication US9605005B2, “Alkynyl alcohols and methods of use” (Genentech, Inc., priority 2013, dated 2017):
Like-named read-outs stand apart in the source and are kept apart here.

Key:
[1] = system: REL-A (p65) nuclear translocation, HeLa cells; experiment: REL-A (p65) nuclear translocation assay in HeLa cells (classical NF-kB signaling, TNF-α stimulated); type: cell-based; conditions: Homo sapiens, 0.5 h
Description: (§1) Several assays were developed to profile the cellular activities of NIK inhibitors.
(§2) (2) A second set of cell assay are used to define the selectivity of NIK inhibitors toward inhibition of classical vs. non-classical NF-kB signaling and rely on quantification of the nuclear translocation of p52 (NF-kB2) and REL-A (p65) using high content cellular imaging. For the p52 (non-classical NF-kB signaling) nuclear translocation assay, HeLa cells are treated with different concentrations of compounds (0.2% DMSO final) in medium containing 10% fetal bovine serum and then stimulated with 100 ng/mL of an anti-lymphotoxin beta receptor antibody (R&D Systems) for 5 hours. In the REL-A nuclear translocation assay, HeLa cells are incubated with compounds (0.2% DMSO final) for 4.5 hours in medium containing 10% fetal bovine serum before stimulating them with 10 ng/mL tumor necrosis factor (TNF)-α (R&D Systems) for 30 minutes. Cells are fixed with 4% paraformaldehyde, permeabilized by adding 0.1% Triton X-100 in phosphate buffered saline, and then are incubated with either 2 ug/mL anti-p52 antibody (Millipore) or 400 ng/mL anti-REL-A (p65) antibody (Santa Cruz Biotechnology). Finally, the cells are incubated with an Alexa488-labeled secondary antibody (Invitrogen) and DRAQ5 DNA stain (Biostatus). Imaging is carried out using an Opera reader (Perkin Elmer) and data are analyzed with the aid of Acapella software (Perkin Elmer). The p52 or REL-Atranslocation into the nucleus is quantified by the ratio of the nuclear to cytoplasmic signal intensity. […] The compounds in listed in Table 1 have the corresponding inhibitory value (IC50 in micromolar) for NIK p52 Translocation Assay as set forth in Table 2.
(§3) The compounds in listed in Table 1 have the corresponding inhibitory values (IC50 in micromolar) for the Translocation Assays as set forth in Table 2.

[2] = system: p52 (NF-kB2) nuclear translocation, HeLa cells; experiment: p52 (NF-kB2) nuclear translocation assay in HeLa cells (non-classical NF-kB signaling, anti-lymphotoxin beta receptor antibody stimulated); type: cell-based; conditions: Homo sapiens, 100 ng/mL anti-lymphotoxin beta receptor antibody for 5 hours, read-out: p52 HeLa Transloc Assay (IC50)
Description: as §1, §2, §3

[3] = molecular target: nuclear factor-kappa B (NF-kB)-inducing kinase (NIK) (Homo sapiens (Human), UniProt Q99558); experiment: NIK enzyme inhibition assay (Transcreener ADP, NIK ADP-FP); type: biochemical; conditions: purified NIK 0.5 nM, 10 μM ATP, fluorescence polarization; read-out: NIK ADP-FP (Ki μM)
[4] = HeLa cells, 10 ng/mL TNF-α for 30 minutes, read-out: REL-A HeLa Transloc Assay (IC50)

Sequence of nuclear factor-kappa B (NF-kB)-inducing kinase (NIK) (Q99558 whole entry): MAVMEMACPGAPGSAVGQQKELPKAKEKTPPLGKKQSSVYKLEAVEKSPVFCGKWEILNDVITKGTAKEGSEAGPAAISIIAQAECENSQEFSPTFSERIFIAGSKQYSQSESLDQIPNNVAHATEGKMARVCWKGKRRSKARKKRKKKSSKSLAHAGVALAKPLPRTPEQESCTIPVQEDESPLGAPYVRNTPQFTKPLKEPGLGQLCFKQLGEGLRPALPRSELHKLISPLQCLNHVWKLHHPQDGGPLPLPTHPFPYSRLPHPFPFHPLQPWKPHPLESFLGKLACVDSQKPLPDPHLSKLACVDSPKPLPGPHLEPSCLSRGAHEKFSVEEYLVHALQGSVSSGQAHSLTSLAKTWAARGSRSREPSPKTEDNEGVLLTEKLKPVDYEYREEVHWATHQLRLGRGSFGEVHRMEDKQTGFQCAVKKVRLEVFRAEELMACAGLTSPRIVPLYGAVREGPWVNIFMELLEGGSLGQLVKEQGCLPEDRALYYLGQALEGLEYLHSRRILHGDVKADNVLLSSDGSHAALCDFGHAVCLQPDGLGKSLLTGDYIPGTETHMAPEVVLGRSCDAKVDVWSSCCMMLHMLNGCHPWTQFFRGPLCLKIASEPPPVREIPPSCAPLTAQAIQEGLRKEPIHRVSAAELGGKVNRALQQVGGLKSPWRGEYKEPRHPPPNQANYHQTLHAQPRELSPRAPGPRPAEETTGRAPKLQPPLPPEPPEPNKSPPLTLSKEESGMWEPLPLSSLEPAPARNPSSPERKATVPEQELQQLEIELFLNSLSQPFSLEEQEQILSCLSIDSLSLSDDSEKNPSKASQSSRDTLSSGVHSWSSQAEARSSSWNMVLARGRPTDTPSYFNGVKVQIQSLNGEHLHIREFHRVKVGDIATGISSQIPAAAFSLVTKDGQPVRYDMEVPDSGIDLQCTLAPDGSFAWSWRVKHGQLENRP

SMILES | IC50 ([1]; HeLa, read-out: REL-A HeLa Transloc Assay (IC50) [μM]) | IC50 [2] | Ki [3] | IC50 [1, 4]
CC(O)(C#Cc1cccc(-n2nc(C(N)=O)c3ccccc32)c1)c1nccs1 (single isomer, unassigned) [Compound 170] | 17.1 µM | 244 nM | 0.00075 µM | –
CN1CC[C@@](O)(C#Cc2cccc(-n3nc(C(N)=O)c4ccccc43)c2)C1=O [Compound 1, 1-[3-[2-[(3R)-3-hydroxy-1-methyl-2-oxo-pyrrolidin-3-yl]ethynyl]phenyl]indazole-3-carboxamide] | – | 57 nM | – | 20 µM
CN1CC[C@@](O)(C#Cc2cccc(-n3nc(C(N)=O)c4c3CCC[C@H]4O)c2)C1=O [Compound 2, (4R)-4-hydroxy-1-[3-[2-[(3R)-3-hydroxy-1-methyl-2-oxo-pyrrolidin-3-yl]ethynyl]phenyl]-4,5,6,7-tetrahydroinda-zole-3-carboxamide] | – | 273 nM | 0.00107 µM | 20 µM
CN1CC[C@@](O)(C#Cc2cccc(-n3nc(C(N)=O)c4cc(F)ccc43)c2)C1=O [Compound 13, 5-fluoro-1-[3-[2-[(3R)-3-hy-droxy-1-methyl-2-oxo-pyrroli-din-3-yl]ethynyl]phenyl] indazole-3-carboxamide] | – | 73 nM | – | 20 µM
CN1CC[C@@](O)(C#Cc2ccnc(-n3nc(C(N)=O)c4c3CCCC4)c2)C1=O [Compound 51, 1-[4-[2-[(3R)-3-hydroxy-1-methyl-2-oxo-pyrrolidin-3-yl]ethynyl]-2-pyridyl]-4,5,6,7-tetrahydroindazole-3-carbox-amide] | – | 225 nM | – | 7.19 µM
CN1CC[C@@](O)(C#Cc2ccnc(-n3nc(C(N)=O)c4ccccc43)c2)C1=O [Compound 52, 1-[4-[2-[(3R)-3-hydroxy-1-methyl-2-oxo-pyrrolidin-3-yl]ethynyl]-2-pyridyl]indazole-3-carboxamide] | – | 22.8 nM | – | 20 µM
CN1CC[C@@](O)(C#Cc2cccc(-n3nc(C(N)=O)c4cccnc43)c2)C1=O [Compound 53, 1-[3-[2-[(3R)-3-hydroxy-1-methyl-2-oxo-pyrrolidin-3-yl]ethynyl]phenyl]pyrazolo [3,4-b]pyridine-3-carboxamide] | – | 37.9 nM | – | 20 µM
CN1CC[C@@](O)(C#Cc2ccnc(-n3nc(C(N)=O)c4cc(F)ccc43)c2)C1=O [Compound 54, 5-fluoro-1-[4-[2-[(3R)-3-hy-droxy-1-methyl-2-oxo-pyrroli-din-3-yl]ethynyl]-2-pyri-diyl]indazole-3-carboxamide] | – | 39 nM | – | 2 µM
COc1cnc2c(c1)c(C(N)=O)nn2-c1cccc(C#C[C@]2(O)CCN(C)C2=O)c1 [Compound 74, 1-[3-[2-[(3R)-3-hydroxy-1-methyl-2-oxo-pyrrolidin-3-yl]ethynyl]phenyl]-5-methoxy-pyrazolo[3,4-b]pyridine-3-carboxamide] | – | 13.9 nM | – | 8 µM
CN1CC[C@@](O)(C#Cc2cccc(-c3nc(C(N)=O)n4ccccc34)c2)C1=O [Compound 77, 1-[3-[2-[(3R)-3-hydroxy-1-methyl-2-oxo-pyrrolidin-3-yl]ethynyl]phenyl]imidazo[1,5-a]pyridine-3-carboxamide] | – | 29.8 nM | – | 20 µM
CN1CC[C@@](O)(C#Cc2cccc(-c3nc(C(N)=O)c4ccccn34)c2)C1=O [Compound 88, 3-[3-[2-[(3R)-3-hydroxy-1-methyl-2-oxo-pyrrolidin-3-yl]ethynyl]phenyl]imidazo[1,5-a]pyridine-1-carboxamide] | – | 240 nM | – | 20 µM
COc1ccc2c(-c3cccc(C#C[C@]4(O)CCN(C)C4=O)c3)nc(C(N)=O)n2c1 [Compound 98, 1-[3-[2-[(3R)-3-hydroxy-1-methyl-2-oxo-pyrrolidin-3-yl]ethynyl]phenyl]-6-methoxy-imidazo[1,5-a]pyridine-3-carboxamide] | – | 17 nM | – | 6.32 µM
